Entries after “also recorded” stand apart in the source; their conditions may differ. Where a name gives a salt, the structure may show the parent alone.
Key:
Type in all cases: physicochemical
Water solubility = details: at 25° C.
[1] = Storage stability at 25° C/0% RH and 25° C/90% RH; details: 25° C/0% relative humidity (RH) and 25° C/90% RH
[2] = Intrinsic dissolution rate (USP <1088>); details: for Intrinsic Dissolution Rate: pellet 0.5 cm^2, 0.05M Acetate Buffer pH = 4.5, 37 C., 100 RPM, UV at 278 nm
From the text: For each intrinsic dissolution measurement, a pellet was produced from the crystalline Form A or the amorphous form sample using an applied load of approximately 15 kN into a flat disk (surface area=0.5 cm^2). After compaction, each pellet was checked by XRPD to confirm that no polymorphic transformation had occurred during the pelleting process. [table] Batches of Form A and the amorphous form (from freeze-drying) were used to determine the intrinsic dissolution rate of both solid forms. Intrinsic dissolution allows the characterization of different crystal forms by exposing a constant surface area to the dissolution medium.

[3] = Hygroscopicity by dynamic moisture sorption/desorption (DVS); details: 25° C.; for reversible weight gain or loss: between 0% RH and 90% RH; for conversion during dynamic vapor sorption experiments: time scale of standard DVS experiments, 0-90% RH; for hygroscopicity classification: weight increase 0% RH to 90% RH
Description: Moisture sorption/desorption data were collected on a DVS-1/DVS-HT/DVS-intrinsic (SMS Surface Measurements Systems) moisture balance system. The sorption/desorption isotherms were measured stepwise in a range of 0% RH (relative humidity) to 90% RH at 25° C. A weight change of <0.002 mg/min was chosen as a criterion to switch to the next level of RH (with a maximum equilibration time of 24 hours, if the weight criterion was not met). The data were corrected for the initial moisture content of the samples; that is, the weight after drying the sample at 0% RH was taken as the zero point. The hygroscopicity of a given substance is characterized by the increase in mass when the RH was raised from 0% RH to 90% RH as given in Table 7. [table]

[4] = Polymorphism screening / solid form stability and conversion; details: for thermodynamic stability / conversion of solid form: polymorphism screening, approximately 3000 crystallization experiments
Description: The amorphous form is non-crystalline and hygroscopic. […] In approximately 3000 crystallization experiments performed during polymorphism screenings, no additional polymorphic form was observed. Based on DSC measurements as well as temperature-controlled XRPD, no conversion of the polymorphic form is observable under heating until melting occurs. […] DSC thermograms were recorded using a Mettler-Toledo instrument (DSC820/821e/1; FRS05 sensor). Approximately 2-6 mg of the sample were placed in aluminum pans and sealed with aluminum lids. Lids were automatically pierced prior to heating. Generally, samples under nitrogen were heated at a rate of 10 K/min to a maximum of 250° C.

[5] = listed as crystalline fumarate salt of Compound I

Row | solubility (Water solubility) | change in assay, purity, moisture and dissolution [1] | Intrinsic Dissolution Rate [2] | reversible weight gain or loss [3] | conversion during dynamic vapor sorption experiments [3] | hygroscopicity classification [3, 5] | thermal stability by DSC ([4]; DSC) | thermodynamic stability / conversion of solid form [4] | thermodynamic stability / conversion of solid form [4, 5] | intrinsic dissolution rate relative to crystalline Form A ([2]; amorphous form vs Form A) | reversible weight gain or loss ([3]; listed as the amorphous from) | hygroscopicity classification ([3]; listed as The amorphous form) | hygroscopicity classification ([3]; listed as the amorphous from) | conversion in slurry experiment ([4]; 2-propanol/water 88:12, 20° C.) | Compound | hygroscopicity classification [3] | thermodynamic stability / conversion of solid form ([4]; listed as The amorphous form)
1 | 1600 µg/mL | no change | 0.0756 mg*cm−2*min−1 | 0.1% | no conversion was observed | non-hygroscopic | stable up to the melting point of 239 °C | thermodynamically stable form | thermodynamically stable | – | – | – | – | – | O=C(c1ccc(F)c(F)c1Nc1ccc(I)cc1F)N1CC(O)([C@@H]2CCCCN2)C1 [Form A, crystalline fumarate salt of (S)-[3,4-difluoro-2-(2-fluoro-4-iodophenylamino)phenyl] [3-hydroxy-3-(piperidin-2-yl)azetidin-1-yl]-methanone] | non-hygroscopic; also recorded: nonhygroscopic | –
2 | – | – | 2.6996 mg*cm−2*min−1 | – | no conversion was observed | – | – | converts to crystalline Form A | – | approximately 35 times | 12.1% | hygroscopic | hygroscopic | converted rapidly into Form A | O=C(c1ccc(F)c(F)c1Nc1ccc(I)cc1F)N1CC(O)([C@@H]2CCCCN2)C1 [the amorphous form] | hygroscopic | convert to Form A by heating and by solvent mediated phase transition in water

— patent publication US11254649B2, “Crystalline fumarate salt of (S)-[3,4-difluoro-2-(2-fluoro-4-iodophenylamino)phenyl] [3-hydroxy-3-(piperidin-2-yl) azetidin-1-yl]-methanone” (Exelixis, Inc., priority 2015, dated 2022)
